# Data reported in ChEMBL document CHEMBL1201862, “PubChem BioAssay data set” (2004).
# Active and inactive are the calls of the source. Cut-off read from the data, not from the text of the source, for most assays here: actives have a measured EC50 and inactives only a lower limit.
# Columns and labels:
# [1] = NIH-3T3 fibroblast cytotoxicity, dose response, cytotoxicity control, cell-based, fluorescence, Alamar Blue, secondary assay (AID 2327); format: functional;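 note: NIH-3T3 mouse fibroblasts cultured with fluconazole at 8 µg/mL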
# [2] = C. albicans growth with fluconazole, confirmation, fluorescence, retest (AID 2467); format: functional, cell-based
# [3] = molecular target: Luciferin 4-monooxygenase (Photinus pyralis, UniProt P08659); assay: firefly luciferase enzyme inhibitors, dose response, biochemical, luminescence (AID 1891)
# Sequence of Luciferin 4-monooxygenase (P08659 whole entry): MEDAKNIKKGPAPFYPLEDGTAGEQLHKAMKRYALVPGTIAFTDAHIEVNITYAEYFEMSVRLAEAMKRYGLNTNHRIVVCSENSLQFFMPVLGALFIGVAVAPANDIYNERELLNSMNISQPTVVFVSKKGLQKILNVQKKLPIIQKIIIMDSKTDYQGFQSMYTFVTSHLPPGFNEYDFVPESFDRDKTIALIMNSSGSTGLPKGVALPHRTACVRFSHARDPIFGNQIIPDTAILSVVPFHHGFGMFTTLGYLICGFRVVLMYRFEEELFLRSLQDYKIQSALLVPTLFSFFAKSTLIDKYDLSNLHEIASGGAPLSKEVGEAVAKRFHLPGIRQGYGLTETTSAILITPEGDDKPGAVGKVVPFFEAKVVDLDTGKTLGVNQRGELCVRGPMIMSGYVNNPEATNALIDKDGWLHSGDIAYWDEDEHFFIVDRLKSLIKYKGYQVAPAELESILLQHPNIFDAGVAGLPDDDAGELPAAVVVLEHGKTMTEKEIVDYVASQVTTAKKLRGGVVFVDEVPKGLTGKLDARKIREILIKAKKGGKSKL
# [4] = molecular target: T1, Heat shock factor protein 1 (Mus musculus, UniProt P38532); assay: HSF1 potentiators in luciferase reporter cells, confirmation, cell-based, NIH3T3, luminescence, dose retest (AID 435004); format: functional;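 note: stress induced by proteasome inhibitor MG132 added 30 min after compound; luciferase reporter driven by HSF1 response element in NIH3T3 cells; actives raise luminescence as potentiators of the MG132 stress response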
# T1 sequence (P38532 whole entry): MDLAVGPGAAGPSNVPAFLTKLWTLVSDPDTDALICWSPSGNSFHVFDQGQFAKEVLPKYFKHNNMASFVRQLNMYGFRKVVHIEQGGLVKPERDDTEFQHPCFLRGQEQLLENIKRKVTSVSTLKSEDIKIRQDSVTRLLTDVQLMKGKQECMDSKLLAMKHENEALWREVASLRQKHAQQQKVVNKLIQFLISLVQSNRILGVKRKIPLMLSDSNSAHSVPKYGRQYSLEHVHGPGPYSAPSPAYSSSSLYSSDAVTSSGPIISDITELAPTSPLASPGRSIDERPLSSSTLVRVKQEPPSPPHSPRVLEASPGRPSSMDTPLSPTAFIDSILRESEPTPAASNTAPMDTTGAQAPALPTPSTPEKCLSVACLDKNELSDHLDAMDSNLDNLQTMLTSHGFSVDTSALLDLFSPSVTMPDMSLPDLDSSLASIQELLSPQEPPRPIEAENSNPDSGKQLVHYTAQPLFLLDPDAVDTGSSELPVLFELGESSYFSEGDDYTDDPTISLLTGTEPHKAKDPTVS
# [5] = tested on: BJ; assay: cells; format: functional, cell-based; settings: Homo sapiens
# [6] = tested on: BJ; assay: cytotoxicity toward BJ-TERT fibroblasts, dose response, cell-based, RAS-independent, luminescence (AID 1933); format: functional; settings: Homo sapiens
# [7] = tested on: BJ; assay: cytotoxicity toward BJ-TERT-LT-ST fibroblasts, dose response, cell-based, RAS-independent, luminescence (AID 1935); format: functional; settings: Homo sapiens;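 note: BJ fibroblasts immortalized with TERT plus LT and ST oncogenes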
# [8] = cytotoxicity toward DRD oncogenic fibroblasts, dose response, cell-based, non-viral oncogenic, luminescence (AID 1934); format: functional; settings: Homo sapiens
# [9] = inhibitors of intracellular T. cruzi replication, confirmation, NIH3T3 host cells, beta-gal luminescence (AID 2044); format: functional, cell-based;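 note: intracellular parasites grown in NIH/3T3 mouse fibroblasts as host cells; luminescent beta-galactosidase reporter signal from transgenic T. cruzi replicating inside host cells; inhibitors lower the luminescence signal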
# [10] = cytotoxicity toward NIH3T3 fibroblasts, dose response, counter-screen, cell-based, ATP luminescence, mouse fibroblasts (AID 2010); format: functional;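 note: cells exposed to compound for about 90 hours before reading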
# [11] = tested on: Streptococcus; assay: Group A Streptococcus viability loss, dose response, counter-screen for streptokinase expression inhibitor project, luminescence, BacTiterGlo (AID 1915); format: functional, organism-based;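 note: potency for reduction of bacterial viability or growth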
# [12] = molecular target: T2, Corticotropin-releasing factor receptor 2/Corticotropin-releasing factor-binding protein (Homo sapiens, UniProt P24387+Q13324); assay: Dose Response confirmation of uHTS hits for small molecule antagonists of the CRF-binding protein and CRF-R2 receptor complex.; format: functional; settings: read-out: IC50_Mean
# T2 sequence (Q13324 whole entry): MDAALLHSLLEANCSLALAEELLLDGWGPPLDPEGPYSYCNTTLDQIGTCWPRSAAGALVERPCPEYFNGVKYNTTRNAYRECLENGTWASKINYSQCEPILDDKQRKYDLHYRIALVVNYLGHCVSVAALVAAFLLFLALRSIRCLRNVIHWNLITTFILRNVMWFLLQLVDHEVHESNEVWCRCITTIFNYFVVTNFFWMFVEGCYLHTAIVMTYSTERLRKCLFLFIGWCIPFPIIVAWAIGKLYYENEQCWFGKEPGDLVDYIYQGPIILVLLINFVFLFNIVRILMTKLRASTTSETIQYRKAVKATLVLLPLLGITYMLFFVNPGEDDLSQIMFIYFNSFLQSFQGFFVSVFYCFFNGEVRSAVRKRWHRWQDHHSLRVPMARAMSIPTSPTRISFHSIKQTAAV
# T2 sequence (P24387 whole entry): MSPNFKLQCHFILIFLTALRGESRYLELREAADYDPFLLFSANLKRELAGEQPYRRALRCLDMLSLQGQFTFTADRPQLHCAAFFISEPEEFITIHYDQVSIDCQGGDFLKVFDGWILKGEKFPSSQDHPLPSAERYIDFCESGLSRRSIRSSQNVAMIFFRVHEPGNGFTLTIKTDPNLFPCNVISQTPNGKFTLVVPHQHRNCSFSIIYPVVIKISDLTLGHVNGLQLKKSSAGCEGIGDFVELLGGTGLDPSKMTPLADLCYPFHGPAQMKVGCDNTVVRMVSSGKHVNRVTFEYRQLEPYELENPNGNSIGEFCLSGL
# [13] = tested on: Streptococcus sp. 'group A'; assay: growth inhibition of control SK(-) GAS strain, dose response, counter-screen for streptokinase expression inhibitor project, luminescence, kanamycin, BacTiterGlo, confirmation (AID 1900); format: functional, organism-based
# [14] = molecular target: T3, Streptokinase A (Streptococcus pyogenes serotype M1, UniProt P10520); assay: S. pyogenes streptokinase expression inhibitors, potency, dose response, plasminogen activation absorbance, OD405 (AID 1914); format: functional, Streptococcus pyogenes M1 GAS;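 note: secreted streptokinase activity via plasminogen activation per viability signal from cell pellet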
# T3 sequence (P10520 whole entry): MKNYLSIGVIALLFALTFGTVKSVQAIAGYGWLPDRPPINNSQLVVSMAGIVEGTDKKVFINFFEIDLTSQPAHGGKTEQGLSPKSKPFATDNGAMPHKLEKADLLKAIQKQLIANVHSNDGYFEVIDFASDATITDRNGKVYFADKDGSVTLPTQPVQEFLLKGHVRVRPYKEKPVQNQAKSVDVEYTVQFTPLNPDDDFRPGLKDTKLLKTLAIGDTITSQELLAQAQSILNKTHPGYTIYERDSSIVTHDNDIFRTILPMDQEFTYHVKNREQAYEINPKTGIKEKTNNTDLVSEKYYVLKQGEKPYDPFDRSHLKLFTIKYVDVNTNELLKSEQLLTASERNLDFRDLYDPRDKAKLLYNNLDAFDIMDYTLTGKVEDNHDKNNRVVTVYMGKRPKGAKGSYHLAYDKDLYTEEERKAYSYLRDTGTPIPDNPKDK
# [15] = molecular target: T2, Corticotropin-releasing factor receptor 2/Corticotropin-releasing factor-binding protein; assay: activators of CRF receptor 2 with binding protein – uHTS hits, confirmation (AID 602473); format: functional; settings: read-out: EC50_Mean
# [16] = Shn3 3'UTR reporter inhibitors, dose response, cell-based, Clone20 osteoblasts, firefly luciferase, cherry-picked (AID 624132); format: functional;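 note: firefly luciferase luminescence from reporter carrying the Shn3 3'UTR in osteoblasts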
# [17] = control 3'UTR Renilla luciferase suppression, dose response, counter-screen for Shn3 inhibitor project, cell-based, Clone20-Shn3RL, cherry-picked (AID 624133); format: functional
# [18] = inhibitors of SNCA 5'UTR-driven reporter translation, confirmation, H4 neuroglioma cells, luminescence (AID 1988); format: functional, cell-based
# [19] = inhibitors of firefly luciferase expression or activity, dose response, H4 neuroglioma cells, luminescence (AID 1990); format: functional, cell-based
# [20] = Luminescence Cell-Based Dose Response HTS to Identify Inhibitors of 5'UTR Stem-Loop Driven Prion Protein mRNA Translation in H4 Neuroglioblastoma Cells. [Related pubchem assays: 1827 (Project Summary), 1813 (Primary HTS)]; format: functional
# [21] = tested on: INS1; assay: beta cell apoptosis inhibitors, cytokine rescue, dose response, luminescence, retest (AID 449756); format: functional, cell-based; settings: Rattus norvegicus;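 note: cell death triggered by IL-1 beta plus TNF-alpha plus IFN-gamma mixture; protective hits raise ATP signal compared with cytokine alone wells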
# [22] = Luminescence Cell-Based Dose Retest to Confirm Inhibitors of Cancer Stem Cells. [Related pubchem assays (depositor defined):AID2717, AID2721]; format: functional; settings: Homo sapiens
# [23] = molecular target: Cytochrome P450 2C9 (Homo sapiens, UniProt P11712)
# Sequence of Cytochrome P450 2C9 (P11712 whole entry): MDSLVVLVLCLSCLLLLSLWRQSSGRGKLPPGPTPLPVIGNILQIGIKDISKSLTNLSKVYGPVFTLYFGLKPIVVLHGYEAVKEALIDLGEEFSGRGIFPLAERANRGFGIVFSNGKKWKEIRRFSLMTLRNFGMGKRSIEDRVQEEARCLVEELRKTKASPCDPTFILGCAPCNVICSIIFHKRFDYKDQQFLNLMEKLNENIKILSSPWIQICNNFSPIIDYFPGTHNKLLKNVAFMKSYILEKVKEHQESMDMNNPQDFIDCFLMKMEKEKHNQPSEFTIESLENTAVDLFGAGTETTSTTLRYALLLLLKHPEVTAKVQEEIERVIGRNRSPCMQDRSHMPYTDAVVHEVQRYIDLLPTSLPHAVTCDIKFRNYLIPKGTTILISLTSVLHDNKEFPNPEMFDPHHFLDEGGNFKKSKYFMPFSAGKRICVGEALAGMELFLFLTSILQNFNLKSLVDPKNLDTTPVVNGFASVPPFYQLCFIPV
smiles,measurement,setting,value
Cc1ccc(NC(=O)NCc2ccccn2)c(C)c1,EC50,[1],> 160 µM (inactive)
same,EC50,[2],6.59 µM (active)
Cc1cccc(NC2=NC(=S)N(c3cccc(C(=O)O)c3)C23CCCCC3)c1,EC50,[1],19.7 µM (inconclusive)
same,EC50,[2],2.12 µM (active)
CCCc1nc2oc3c(=O)nc[nH]c3c2c2c1CCCC2,EC50,[3],> 112 µM (not active)
COc1cc2nc(S)nc(NCc3cccs3)c2cc1OC,EC50,[4],> 260 µM (inactive)
CC(=O)n1c(Cl)c(NC(=O)CCl)c2ccccc21,EC50,[5],> 150 µM (not active)
same,EC50,[6],25.1 µM (active)
same,EC50,[7],> 150 µM (not active)
same,EC50,[8],29.7 µM (active)
CN(CCCNC(=O)CCCOc1cc(=O)n(C)c2ccccc12)Cc1ccccc1,EC50,[9],0.46 µM (active)
same,EC50,[10],> 30 µM (not active)
same,EC50,[1],> 160 µM (inactive)
same,EC50,[2],> 38 µM (not active)
Cc1ccc2cccc(NC(=O)C(F)(F)F)c2n1,EC50,[4],> 260 µM (inactive)
Cc1ccccc1NS(=O)(=O)c1ccc(C)c(C(=O)N2CCOCC2)c1,EC50,[11],> 150 µM (not active)
same,IC50,[12],> 47.1 µM (inactive)
same,EC50,[13],> 150 µM (not active)
same,EC50,[14],> 150 µM (not active)
same,EC50,[15],> 53 µM (inactive)
NC(=O)c1cc(N2C(=O)C=CC2=O)ccc1Cl,AC50,[16],11.3 µM (active)
same,AC50,[17],25.5 µM (active)
CN1CC(C(=O)c2ccc(F)cc2)C(c2c(F)cccc2Cl)C1 (stereo not drawn),EC50,[4],> 260 µM (inactive)
Cc1nc2c(s1)sc1ccccc12,IC50,[12],> 47.1 µM (inactive)
same,EC50,[15],> 53 µM (inactive)
Cc1cc(C)n2nc(/C(C#N)=C/c3ccccc3)c(C#N)c2n1,IC50,[12],> 47.1 µM (inactive)
same,EC50,[15],> 53 µM (inactive)
Cc1nc2cc3[nH]c(C(F)(F)F)nc3cc2[nH]1,EC50,[4],> 260 µM (inactive)
C#CC[N+]1(CC#Cc2ccccc2)CCCCC1,EC50,[4],> 260 µM (inactive)
CCOC(=O)C1CCCN(c2cc(C)nc3cc(-c4ccc(F)cc4)nn23)C1 (stereo not drawn),EC50,[1],> 160 µM (inactive)
same,EC50,[2],> 38 µM (not active)
Cc1nnc(N2CCC(C(=O)NC3CCC(C)CC3)CC2)c2nn(-c3ccc(Cl)cc3)c(C)c12 (stereo not drawn),EC50,[18],> 120 µM (not active)
same,EC50,[19],14.7 µM (active)
same,EC50,[20],> 120 µM (not active)
Cc1ccc(S(=O)(=O)Nc2cc(-c3nn(C)c(=O)c4ccccc34)ccc2N2CCOCC2)cc1,EC50,[18],10.8 µM (active)
same,EC50,[19],> 60 µM (not active)
same,EC50,[20],> 120 µM (not active)
CCCC1(C(=O)OC)NC(c2ccco2)C2C(=O)N(C)C(=O)C21 (stereo not drawn),EC50,[18],> 120 µM (not active)
same,EC50,[19],> 120 µM (not active)
same,EC50,[20],> 120 µM (not active)
Cc1ccc(-n2nc3c(c2NC(=O)c2ccc4c(c2)OCO4)CSC3)c(C)c1,EC50,[4],> 260 µM (inactive)
CCOC(=O)C(CC)(CC)C(=O)/C=C/c1cccc(Br)c1,EC50,[5],16.6 µM (active)
same,EC50,[6],10 µM (active)
same,EC50,[7],10.7 µM (inconclusive)
same,EC50,[8],9.57 µM (active)
CCOC(=O)c1c(C)[nH]c(C)c1S(=O)(=O)N1CCN(c2ccc([N+](=O)[O-])cc2)CC1,EC50,[18],> 120 µM (not active)
same,EC50,[19],23 µM (active)
same,EC50,[20],> 120 µM (not active)
O=C1c2ccccc2C2=Nc3ccccc3SC(c3ccc(Cl)cc3)C12 (stereo not drawn),EC50,[11],4.58 µM (active)
same,EC50,[13],2.87 µM (active)
same,AC50,[21],14.1 µM (active)
same,AC50,[22],5.23 µM (active)
same,EC50,[14],> 150 µM (not active)
CCCCc1ccc(-c2ccc(C)cc2O)nc1,EC50,[18],4.33 µM (active)
same,EC50,[20],11.7 µM (inconclusive)
Cc1ccc(N(C(=O)Cn2nnc(-c3ccccc3)n2)C(C(=O)NC2CCCCC2)c2ccccn2)cc1C (stereo not drawn),IC50,[12],> 47.1 µM (inactive)
same,EC50,[15],> 53 µM (inactive)
CCOc1ccc(N(CC(=O)NC2CCC(C)CC2)S(=O)(=O)c2c(C)noc2C)cc1 (stereo not drawn),IC50,[12],> 47.1 µM (inactive)
same,EC50,[15],> 53 µM (inactive)
O=[N+]([O-])c1ccc(N2CCN(S(=O)(=O)c3ccccc3)CC2)cc1NCC1CCCO1 (stereo not drawn),EC50,[18],19.2 µM (active)
same,EC50,[19],18.3 µM (active)
same,EC50,[20],40.6 µM (active)
COc1ccc(N2CCN(C(=O)c3csc4ccccc34)CC2)cc1,IC50,[12],> 47.1 µM (inactive)
same,EC50,[15],> 53 µM (inactive)
C=CCNC(=S)N/N=C/c1ccc(OCc2ccccc2)cc1,IC50,[12],> 47.1 µM (inactive)
same,AC50,[23],15.8 µM (inconclusive)
same,EC50,[15],> 53 µM (inactive)
Cc1ccc2c(c1)Oc1ccccc1N=C2,IC50,[12],> 47.1 µM (inactive)
same,EC50,[15],> 53 µM (inactive)
CCOc1ccc(/C=N/NC(=O)CN2CCCCCCC2)cc1,IC50,[12],> 47.1 µM (inactive)
same,EC50,[15],> 53 µM (inactive)
O=C(Nc1ccccc1O)c1ccccc1O,EC50,[1],> 150 µM (inactive)
same,EC50,[2],6.43 µM (active)
